According to publication PMC8533986, “[^99mTc]Tc-DB15 in GRPR-Targeted Tumor Imaging with SPECT: From Preclinical Evaluation to the First Clinical Outcomes” (Cancers, 2021):

Columns and labels:
human GRPR = target: T1, human GRPR (Homo sapiens, UniProt P30550); experiment: Competition binding assay, displacement of [125I]I-[Tyr4]BBN from PC-3 cell membranes; conditions: PC-3 cell membrane homogenates, 1 h at 22 °C, pH 7.4, mean ± SD of three experiments in triplicate, read-out: IC50, binding affinity for the human GRPR
T1 construct: displacement of the [^125I]I-[Tyr^4]BBN radioligand from freshly harvested PC-3 cell membranes; host or cells: PC-3 human prostate adenocarcinoma cells (membrane homogenate)
T1 sequence (P30550 whole entry): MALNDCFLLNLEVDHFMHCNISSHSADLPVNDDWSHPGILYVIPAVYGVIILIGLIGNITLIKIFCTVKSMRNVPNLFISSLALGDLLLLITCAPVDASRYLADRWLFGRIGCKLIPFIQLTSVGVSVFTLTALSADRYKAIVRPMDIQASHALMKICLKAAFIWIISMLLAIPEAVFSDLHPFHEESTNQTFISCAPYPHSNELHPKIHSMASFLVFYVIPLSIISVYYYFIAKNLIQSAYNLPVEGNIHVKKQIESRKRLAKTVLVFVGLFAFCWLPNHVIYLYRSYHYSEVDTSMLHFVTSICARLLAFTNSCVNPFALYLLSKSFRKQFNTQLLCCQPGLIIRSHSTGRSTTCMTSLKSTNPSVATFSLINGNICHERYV
Procedure: 2.4. Competition Binding Assays in PC-3 Cell-Membranes
Rapid filtration through glass fiber filters (Whatman GF/B, presoaked in binding buffer for at least 1 h) on a Brandel Cell Harvester (Adi Hassel Ingenieur Büro, Munich, Germany) and rinsing with ice-cold washing buffer (10 mM HEPES pH 7.4, 150 mM NaCl) followed. Filter radioactivity was measured in a gamma counter (automated multi-sample well-type instrument with a NaI(Tl) 3” crystal, Canberra Packard Cobra^TM Quantum U5003/1, Auto-Gamma® counting system). […] Values are expressed as mean ± standard deviation (SD) of three experiments performed in triplicate.

PC-3 cells = experiment: Time-dependent uptake of [99mTc]Tc-DB15 in PC-3 cells; type: cell-based, human
Procedure: (§1) 2.5. Time-Dependent Uptake of [^99mTc]Tc-DB15 in PC-3 and T-47D Cells
(§2) One day before the experiment, PC-3 or T-47D cells were seeded in 6-well plates (≈1 × 10^6 cells per well). Next day, the cells were rinsed with ice-cold internalization medium (IM, RPMI-1640 GlutaMAX-I, supplemented by 1% (v/v) FBS). […] [^99mTc]Tc-DB15 (250 fmol total peptide in 150 µL 0.5% BSA-PBS) was added in all wells and the plates were incubated at for 15 min, 30 min, 1 h and 2 h at 37 °C in an Incubator-Orbital Shaker unit (MPM Instr. SrI, Bernareggio, MI, Italy). Cells were then placed on ice, the medium was collected, and the plates were rinsed with 0.5% BSA-PBS (1 mL). Membrane-bound fractions were collected after treatment in acid-wash solution (2 × 600 µL; 50 mM glycine buffer pH 2.8, 0.1 M NaCl). Internalized fractions were collected after treatment with 1 N NaOH (2 × 600 µL), as previously described. After counting of radioactivity of all collected fractions in the gamma counter, the percentage of specific internalized and membrane-bound fractions per time point were calculated with Microsoft Excel and the respective curves were drawn. Specific internalized and membrane-bound counts were determined by subtracting the respective non-specific from the respective total counts. Results represent specific internalized ±SD of total added radioactivity per well from three experiments performed in triplicate.

BC patients = conditions: two advanced BC patients, imaging 15 min-24 h pi
Procedure: Two BC patients were tested for the potential of pathological lesion detection after injection of [^99mTc]Tc-DB15.
A single dose of [^99mTc]Tc-DB15 (5-mL, 700–800 MBq corresponding to 20 μg DB15) was administered as a slow intravenous (iv) injection over 1 min. Vital signs (pulse rate, systolic and diastolic BP) were measured prior to the injection of [^99mTc]DB15 as well as within 15 min pi. Likewise, ECGs were performed prior to the injection, continuously during the injection and for 15 min pi. ECG and vital signs were measured again after the last scan was completed and blood tests for hematology and biochemistry (glucose, creatinine, bilirubin, transaminases, sodium, potassium, calcium) were performed. The laboratory evaluation was repeated 7, 14 and 28 days after imaging. Adverse events (AEs) were assessed and graded according to National Cancer Institute Common Toxicity Criteria for Adverse Events (CTCAE) Version 3.0.
Gamma camera imaging was performed on a Symbia Intevo Bold dual-head SPECT/CT scanner (Siemens Healthineers AG; Erlangen, Germany) equipped with a 16-slice CT scanner. Planar imaging of the whole body and SPECT/CT images of the thorax were obtained 15 min, 1 h, 3 h, and 24 h pi. Planar and SPECT/CT images were inspected for increased uptake by two experienced nuclear medicine specialists.

T-47D cells = experiment: Time-dependent uptake of [99mTc]Tc-DB15 in T-47D cells; type: cell-based, human
Procedure: as §1, §2

[1] = 30 min incubation, 37 °C, 250 fmol total peptide, mean ± SD, three experiments in triplicate
[2] = all time points (15 min-2 h), results not shown

Row | IC50 (human GRPR) | Compound | portion found within the cells (internalized) (PC-3 cells; 37 °C) | specific cell uptake (cell-associated fraction of total added activity) (PC-3 cells; [1]) | cell association in the presence of 1 μM [Tyr4]BBN (PC-3 cells; [2]) | Pathological findings on planar and SPECT/CT images (BC patients) | portion found within the cells (internalized) (T-47D cells; 37 °C) | specific cell uptake (cell-associated fraction of total added activity) (T-47D cells; [1]) | cell association in the presence of 1 μM [Tyr4]BBN (T-47D cells; [2])
1 | 0.37 ± 0.03 nM | CCNC(=O)[C@H](CC(C)C)NC(=O)[C@H](Cc1c[nH]cn1)NC(=O)CN(C)C(=O)[C@@H](NC(=O)[C@H](C)NC(=O)[C@H](Cc1c[nH]c2ccccc12)NC(=O)[C@H](CCC(N)=O)NC(=O)[C@@H](Cc1ccccc1)NC(=O)COCC(=O)Nc1ccc(CNC(=O)C(CNCCN)CNCCN)cc1)C(C)C [DB15, N4-AMA-DGA-DPhe^6,Sar^11,LeuNHEt^13]BBN(6-13)] |  |  |  |  |  |  | 
2 |  | [^99mTc]Tc-N4-AMA-DGA-DPhe^6,Sar^11,LeuNHEt^13]BBN(6-13) [[^99mTc]Tc-DB15] | < 6% | 13.1 ± 0.1% | < 0.9% | increased uptake of [^99mTc]Tc-DB15 in the BC metastases in both patients | < 6% | 24.2 ± 0.7% | < 0.9%
